Measured values from ChEMBL document CHEMBL4130433, “Acridone-pyrimidine hybrids- design, synthesis, cytotoxicity studies in resistant and sensitive cancer cells and molecular docking studies” (Eur J Med Chem, 2017).
pIC50: −log10 of the molar value.

Experiments:
[1] = tested on: SW1573; test: Antiproliferative activity against resistant human SW1573 2R 160 cells harboring P-gp after 72 hrs by MTT assay; type: functional, cell-based; settings: SW1573, 72 h
[2] = tested on: Rattus norvegicus; test: Toxicity in overnight fasted albino Wistar rat assessed as body weight at 2000 mg/kg, po administered as single dose followed by fasting for 3 hrs measured on day 4 post dose (reference value: 169 +/- 5 g); type: organism-based; settings: in vivo
[3] = tested on: MCF7; test: Antiproliferative activity against human MCF7 cells after 72 hrs by MTT assay; type: functional, cell-based; settings: MCF7, 72 h
[4] = tested on: SW1573; test: Antiproliferative activity against resistant human SW1573 2R 120 cells harboring MRP1 after 72 hrs by MTT assay; type: functional, cell-based; settings: SW1573, 72 h
[5] = tested on: Rattus norvegicus; test: Toxicity in overnight fasted albino Wistar rat assessed as body weight at 300 mg/kg, po administered as single dose followed by fasting for 3 hrs measured on day 12 post dose (reference value: 186 +/- 13 g); type: organism-based; settings: in vivo
[6] = tested on: A549; test: cells; settings: Homo sapiens, A549, 72 h
Description: Antiproliferative activity against human A549 cells after 72 hrs by MTT assay

[7] = tested on: Rattus norvegicus; test: Toxicity in overnight fasted albino Wistar rat assessed as body weight at 300 mg/kg, po administered as single dose followed by fasting for 3 hrs measured on day 13 post dose (reference value: 188 +/- 16 g); type: organism-based; settings: in vivo
[8] = tested on: Rattus norvegicus; test: Toxicity in overnight fasted albino Wistar rat assessed as body weight at 5000 mg/kg, po administered as single dose followed by fasting for 3 hrs measured on day 10 post dose (reference value: 182 +/- 15 g); type: organism-based; settings: in vivo
[9] = tested on: Rattus norvegicus; test: Toxicity in overnight fasted albino Wistar rat assessed as body weight at 5000 mg/kg, po administered as single dose followed by fasting for 3 hrs measured on day 2 post dose (reference value: 165 +/- 12 g); type: organism-based; settings: in vivo
[10] = tested on: Rattus norvegicus; test: Toxicity in overnight fasted albino Wistar rat assessed as body weight at 5000 mg/kg, po administered as single dose followed by fasting for 3 hrs measured on day 7 post dose (reference value: 175 +/- 10 g); type: organism-based; settings: in vivo
[11] = tested on: Rattus norvegicus; test: Toxicity in overnight fasted albino Wistar rat assessed as body weight at 300 mg/kg, po administered as single dose followed by fasting for 3 hrs measured on day 8 post dose (reference value: 177 +/- 8 g); type: organism-based; settings: in vivo
[12] = tested on: Rattus norvegicus; test: Toxicity in overnight fasted albino Wistar rat assessed as clinical signs at 300 to 5000 mg/kg, po administered as single dose followed by fasting for 3 hrs measured for every 1 hr up to 12 hrs on first day of dosing and thereafter twice in a day for 14 days; type: organism-based; settings: in vivo
[13] = tested on: Rattus norvegicus; test: Toxicity in overnight fasted albino Wistar rat assessed as body weight at 2000 mg/kg, po administered as single dose followed by fasting for 3 hrs measured on day 14 post dose (reference value: 191 +/- 18 g); type: organism-based; settings: in vivo
[14] = tested on: 2008; test: Antiproliferative activity against resistant human 2008 cells clone 4 harboring MRP1 after 72 hrs by MTT assay; type: functional, cell-based; settings: Homo sapiens, 2008, 72 h
[15] = tested on: Rattus norvegicus; test: Toxicity in overnight fasted albino Wistar rat assessed as body weight at 300 mg/kg, po administered as single dose followed by fasting for 3 hrs measured on day 10 post dose (reference value: 182 +/- 15 g); type: organism-based; settings: in vivo
[16] = tested on: Rattus norvegicus; test: Toxicity in overnight fasted albino Wistar rat assessed as body weight at 5000 mg/kg, po administered as single dose followed by fasting for 3 hrs measured on day 11 post dose (reference value: 185 +/- 8 g); type: organism-based; settings: in vivo
[17] = Cytotoxicity against African green monkey Vero cells after 72 hrs by MTT assay; type: cell-based; settings: chlorocebus sabaeus
[18] = tested on: HeLa; test: Antiproliferative activity against human HeLa cells after 72 hrs by MTT assay; type: functional, cell-based
[19] = tested on: Rattus norvegicus; test: Toxicity in overnight fasted albino Wistar rat assessed as body weight at 2000 mg/kg, po administered as single dose followed by fasting for 3 hrs measured on day 6 post dose (reference value: 173 +/- 12 g); type: organism-based; settings: in vivo
[20] = tested on: Rattus norvegicus; test: Toxicity in overnight fasted albino Wistar rat assessed as body weight at 5000 mg/kg, po administered as single dose followed by fasting for 3 hrs measured on day 6 post dose (reference value: 173 +/- 12 g); type: organism-based; settings: in vivo
[21] = tested on: Rattus norvegicus; test: Toxicity in overnight fasted albino Wistar rat assessed as body weight at 300 mg/kg, po administered as single dose followed by fasting for 3 hrs measured on day 11 post dose (reference value: 185 +/- 8 g); type: organism-based; settings: in vivo
[22] = Antiproliferative activity against human MCF7/DX cells after 72 hrs by MTT assay; type: functional, cell-based
[23] = tested on: Rattus norvegicus; test: Toxicity in overnight fasted albino Wistar rat assessed as body weight at 5000 mg/kg, po administered as single dose followed by fasting for 3 hrs measured on day 8 post dose (reference value: 177 +/- 8 g); type: organism-based; settings: in vivo
[24] = tested on: Rattus norvegicus; test: Toxicity in overnight fasted albino Wistar rat assessed as body weight at 2000 mg/kg, po administered as single dose followed by fasting for 3 hrs measured on day 9 post dose (reference value: 180 +/- 12 g); type: organism-based; settings: in vivo

pIC50 [1]: 4.92
pIC50 [3]: 4.19
pIC50 [4]: < 4.00
pIC50 [6]: 4.54
pIC50 [18]: 4.20
SMILES: COC(=O)c1c(C)nc(NNC(=O)c2cccc3c(=O)c4ccccc4[nH]c23)nc1-c1ccc(OC)c(OC)c1
Activity [2]: 187 g
Activity [5]: 199 g
Activity [7]: 204 g
Activity [8]: 215 g
Activity [9]: 189 g
Activity [10]: 206 g
Activity [11]: 192 g
Activity [12]: Non-Toxic
Activity [13]: 213 g
pIC50 [14]: 4.38
Activity [15]: 193 g
Activity [16]: 219 g
CC50 at 72 h [17]: 85.7 µM
Activity [19]: 194 g
Activity [20]: 202 g
Activity [21]: 196 g
pIC50 [22]: 4.11
Activity [23]: 208 g
Activity [24]: 199 g
